Each molecule was assayed against recombinant human Vps34 (Homo sapiens, UniProt Q8NEB9) (assay: Vps34 KinaseGlo assay). Settings: KinaseGlo luminescence ATP detection; PI/OG substrate; 1 μM ATP; room temperature; 8 concentrations, n=2.
Chain of recombinant human Vps34 (Q8NEB9 whole entry): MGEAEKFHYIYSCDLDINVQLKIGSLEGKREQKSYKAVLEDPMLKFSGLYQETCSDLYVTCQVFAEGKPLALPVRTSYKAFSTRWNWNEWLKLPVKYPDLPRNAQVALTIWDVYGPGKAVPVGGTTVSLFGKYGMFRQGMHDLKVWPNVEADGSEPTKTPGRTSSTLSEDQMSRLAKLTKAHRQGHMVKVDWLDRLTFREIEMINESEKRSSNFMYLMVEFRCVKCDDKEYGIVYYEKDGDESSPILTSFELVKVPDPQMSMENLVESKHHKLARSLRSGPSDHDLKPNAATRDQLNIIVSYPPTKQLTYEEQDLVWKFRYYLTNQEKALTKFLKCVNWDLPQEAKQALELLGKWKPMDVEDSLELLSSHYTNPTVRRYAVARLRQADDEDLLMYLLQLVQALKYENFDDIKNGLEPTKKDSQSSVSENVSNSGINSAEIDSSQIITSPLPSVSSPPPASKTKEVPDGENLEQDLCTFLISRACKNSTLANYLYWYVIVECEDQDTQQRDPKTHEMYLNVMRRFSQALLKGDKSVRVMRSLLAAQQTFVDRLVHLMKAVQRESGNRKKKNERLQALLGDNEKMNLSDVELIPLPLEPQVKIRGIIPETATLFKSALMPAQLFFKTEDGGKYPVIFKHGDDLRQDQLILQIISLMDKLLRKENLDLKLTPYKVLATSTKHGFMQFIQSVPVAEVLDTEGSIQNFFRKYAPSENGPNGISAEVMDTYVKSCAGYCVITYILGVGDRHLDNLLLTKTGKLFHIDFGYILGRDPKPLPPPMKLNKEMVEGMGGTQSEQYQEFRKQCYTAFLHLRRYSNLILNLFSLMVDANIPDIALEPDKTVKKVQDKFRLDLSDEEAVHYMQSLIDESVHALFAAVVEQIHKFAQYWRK
Type: biochemical
Protocol: It was then resuspended in 3% OctylGlucoside by vortexing and stored at 4° C. 5 μL of a mix of PI/OG with recombinant human Vps34 were added. Kinase reactions were started by addition of 5 μl of ATP-mix containing in a final volume 10 μL 10 mM TRIS-HCl pH 7.5, 3 mM MgCl2, 50 mM NaCl, 0.05% CHAPS, 1 mM DTT and 1 μM ATP, and occurred at room temperature. Reactions were stopped with 10 μl of KinaseGlo and plates were read 10 minutes later in a Synergy2 reader using an integration time of 0.1 seconds per well.
An IC50 of 0.13 µM was found for `Nc1ncc(-c2ccnc(Nc3ccncc3)n2)c(CO)n1` [Example 23, [2′-Amino-2-(pyridin-4-ylamino)-4,5′-bipyrimidin-4′-yl]methanol] in this work. An IC50 of 0.105 µM was found for `CC(C)(O)CNc1ncc(-c2ccnc(Nc3ccc(Cl)cc3)n2)c(CC2CC2)n1` [Example 16e, 1-(2-(4-chlorophenylamino)-4′-(cyclopropylmethyl)-4,5′-bipyrimidin-2′-ylamino)-2-methylpropan-2-ol] in this work. An IC50 of 0.193 µM was found for `Nc1ncc(-c2ccnc(Nc3ccc(Cl)cn3)n2)c(CC2CC2)n1` [Example 15v, N^2-(5-chloropyridin-2-yl)-4′-(cyclopropylmethyl)-4,5′-bipyrimidine-2,2′-diamine] in this work. An IC50 of 0.398 µM was found for `CNc1ncc(-c2ccnc(NC3CCOCC3)n2)c(CC2CC2)n1` [Example 14g, 4′-(cyclopropylmethyl)-N^2′-methyl-N^2-(tetrahydro-2H-pyran-4-yl)-4,5′-bipyrimidine-2,2′-diamine] in this work. An IC50 of 1.66 µM was found for `Nc1ncc(-c2ccnc(NCCN3CCOCC3)n2)c(CC2CC2)n1` [Example 15s, 4′-(cyclopropylmethyl)-N^2-(2-morpholinoethyl)-4,5′-bipyrimidine-2,2′-diamine] in this work. An IC50 of 0.924 µM was found for `Nc1ncc(-c2ccnc(Nc3nncs3)n2)c(CC2CC2)n1` [Example 15i, 4′-(cyclopropylmethyl)-N^2-(1,3,4-thiadiazol-2-yl)-4,5′-bipyrimidine-2,2′-diamine] in this work. An IC50 of 0.0455 µM was found for `c1cc(Nc2nccc(-c3cnc(NC4CC4)nc3CC3CC3)n2)ccn1` [Example 12c, N^2′-cyclopropyl-4′-(cyclopropylmethyl)-N^2-(pyridin-4-yl)-4,5′-bipyrimidine-2,2′-diamine] in this work. An IC50 of 0.138 µM was found for `CC(=O)Nc1ccc(Nc2nccc(-c3cnc(NCC(C)(C)O)nc3CC3CC3)n2)cc1` [Example 16f, N-(4-(4′-(cyclopropylmethyl)-2′-(2-hydroxy-2-methylpropylamino)-4,5′-bipyrimidin-2-ylamino)phenyl)acetamide] in this work. An IC50 of 0.264 µM was found for `Nc1ncc(-c2ccnc(N[C@H]3CC[C@H](O)CC3)n2)c(CC2CC2)n1` [Example 6b, (1r, 4r)-4-(2′-amino-4′-(cyclopropylmethyl)-4,5′-bipyrimidin-2-ylamino)cyclohexanol] in this work. An IC50 of 1.5 µM was found for `Nc1ncc(-c2ccnc(NC3CCCOC3)n2)c(CC2CC2)n1` (stereo not shown) [Example 15d, 4′-(cyclopropylmethyl)-N2-(tetrahydro-2H-pyran-3-yl)-4,5′-bipyrimidine-2,2′-diamine] in this work. An IC50 of 0.187 µM was found for `Nc1ncc(-c2ccnc(NCCc3c[nH]cn3)n2)c(CC2CC2)n1` [Example 15t, N^2-(2-(1H-imidazol-4-yl)ethyl)-4′-(cyclopropylmethyl)-4,5′-bipyrimidine-2,2′-diamine] in this work. An IC50 of 0.258 µM was found for `C[C@@H](Nc1ncc(-c2ccnc(Nc3ccncc3)n2)c(CC2CC2)n1)c1ccccc1` [Example 10h, (R)-4′-(cyclopropylmethyl)-N^2′-(1-phenylethyl)-N^2-(pyridin-4-yl)-4,5′-bipyrimidine-2,2′-diamine] in this work. An IC50 of 0.775 µM was found for `Cc1ncc(-c2ccnc(N[C@H]3CC[C@H](O)CC3)n2)c(CC2CC2)n1` [Example 6c, (1r,4r)-4-(4′-(cyclopropylmethyl)-2′-methyl-4,5′-bipyrimidin-2-ylamino)cyclohexanol] in this work. An IC50 of 0.781 µM was found for `Nc1ncc(-c2ccnc(NCc3ccco3)n2)c(CC2CC2)n1` [Example 15k, 4′-(cyclopropylmethyl)-N^2-(furan-2-ylmethyl)-4,5′-bipyrimidine-2,2′-diamine] in this work. An IC50 of 0.026 µM was found for `CC(C)(O)CNc1ncc(-c2ccnc(Nc3ccc(S(C)(=O)=O)cc3)n2)c(CC2CC2)n1` [Example 16d, 1-(4′-(cyclopropylmethyl)-2-(4-(methylsulfonyl)phenylamino)-4,5′-bipyrimidin-2′-ylamino)-2-methylpropan-2-ol] in this work. An IC50 of 0.722 µM was found for `CNc1ncc(-c2ccnc(NC3CCC3)n2)c(CC2CC2)n1` [Example 14f, N^2-cyclobutyl-4′-(cyclopropylmethyl)-N^2′-methyl-4,5′-bipyrimidine-2,2′-diamine] in this work. An IC50 of 0.02 µM was found for `CCNc1ncc(-c2ccnc(Nc3ccncc3)n2)c(CC2CC2)n1` [Example 10b, 4′-(cyclopropylmethyl)-N^2′-ethyl-N^2-(pyridin-4-yl)-4,5′-bipyrimidine-2,2′-diamine] in this work. An IC50 of 0.085 µM was found for `CC(C)(C)CNc1ncc(-c2ccnc(Nc3ccncc3)n2)c(CC2CC2)n1` [Example 10r, 4′-(cyclopropylmethyl)-N2′-neopentyl-N2-(pyridin-4-yl)-4,5′-bipyrimidine-2,2′-diamine] in this work. An IC50 of 0.072 µM was found for `CC(C)CNc1ncc(-c2ccnc(Nc3ccncc3)n2)c(CC2CC2)n1` [Example 10d, 4′-(cyclopropylmethyl)-N^2′-isobutyl-N^2-(pyridin-4-yl)-4,5′-bipyrimidine-2,2′-diamine] in this work. An IC50 of 0.048 µM was found for `Cc1cc(Nc2nccc(-c3cnc(N)nc3CC3CC3)n2)on1` [Example 15h, 4′-Cyclopropylmethyl-N^2-(3-methyl-isoxazol-5-yl)-[4,5′]bipyrimidinyl-2,2′-diamine] in this work. An IC50 of 0.728 µM was found for `CCc1ncc(-c2ccnc(N[C@H]3CC[C@H](O)CC3)n2)c(CC2CC2)n1` [Example 6d, (1r,4r)-4-(4′-(cyclopropylmethyl)-2′-ethyl-4,5′-bipyrimidin-2-ylamino)cyclohexanol] in this work. An IC50 of 0.133 µM was found for `CNc1ncc(-c2ccnc(Nc3cnc4ccccc4c3)n2)c(CC2CC2)n1` [Example 14d, 4′-(cyclopropylmethyl)-N^2′-methyl-N^2-(quinolin-3-yl)-4,5′-bipyrimidine-2,2′-diamine] in this work. An IC50 of 4 µM was found for `COc1ncc(-c2ccnc(NC3CCC(O)CC3)n2)c(CC2CC2)n1` (stereo not shown) [Example 6f, 4-(4′-(cyclopropylmethyl)-2′-methoxy-4,5′-bipyrimidin-2-ylamino)cyclohexanol] in this work. An IC50 of 0.104 µM was found for `Nc1ccc(Nc2nccc(-c3cnc(N)nc3CC3CC3)n2)cc1` [Example 15u, N^2-(4-aminophenyl)-4′-(cyclopropylmethyl)-4,5′-bipyrimidine-2,2′-diamine] in this work. An IC50 of 0.231 µM was found for `CN(C)c1cccc(Nc2nccc(-c3cnc(N)nc3CC3CC3)n2)c1` [Example 15y, 4′-(cyclopropylmethyl)-N^2-(3-(dimethylamino)phenyl)-4,5′-bipyrimidine-2,2′-diamine] in this work. An IC50 of 0.062 µM was found for `CC(=O)Nc1ccc(Nc2nccc(-c3cnc(N)nc3CC3CC3)n2)cc1` [Example 15n, N-(4-(2′-amino-4′-(cyclopropylmethyl)-4,5′-bipyrimidin-2-ylamino)phenyl)acetamide] in this work. An IC50 of 0.214 µM was found for `c1cc(Nc2nccc(-c3cncnc3CC3CC3)n2)ccn1` [Example 10v, 4′-(cyclopropylmethyl)-N-(pyridin-4-yl)-4,5′-bipyrimidin-2-amine] in this work. An IC50 of 0.21 µM was found for `C[C@H](CO)Nc1ncc(-c2ccnc(Nc3ccncc3)n2)c(CC2CC2)n1` [Example 10p, (R)-2-(4′-(cyclopropylmethyl)-2-(pyridin-4-ylamino)-4,5′-bipyrimidin-2′-ylamino)propan-1-ol] in this work. An IC50 of 0.577 µM was found for `CC(=O)N[C@H]1CC[C@H](Nc2nccc(-c3cnc(N)nc3CC3CC3)n2)CC1` [Example 15a, N-((1r,4r)-4-(2′-amino-4′-(cyclopropylmethyl)-4,5′-bipyrimidin-2-ylamino)cyclohexyl)acetamide] in this work. An IC50 of 2.23 µM was found for `CC(C)(CO)CNc1nccc(-c2cnc(N)nc2CC2CC2)n1` [Example 15g, 3-(2′-amino-4′-(cyclopropylmethyl)-4,5′-bipyrimidin-2-ylamino)-2,2-dimethylpropan-1-ol] in this work. An IC50 of 0.031 µM was found for `Nc1ncc(-c2ccnc(Nc3ccncc3)n2)c(C(F)(F)F)n1` [Example 22, N2-(pyridin-4-yl)-4′-(trifluoromethyl)-4,5′-bipyrimidine-2,2′-diamine] in this work. An IC50 of 1 µM was found for `O[C@H]1CC[C@H](Nc2nccc(-c3cncnc3CC3CC3)n2)CC1` [Example 6a, Trans-4-{[4′-(cyclopropylmethyl)-4,5′-bipyrimidin-2-yl]amino}cyclohexanol] in this work. An IC50 of 0.057 µM was found for `Nc1ncc(-c2ccnc(Nc3ccc(Cl)cc3)n2)c(CC2CC2)n1` [Example 15o, N^2-(4-chlorophenyl)-4′-(cyclopropylmethyl)-4,5′-bipyrimidine-2,2′-diamine] in this work. An IC50 of 0.106 µM was found for `CSc1ncc(-c2ccnc(Nc3ccncc3)n2)c(CC2CC2)n1` [Example 11, 4′-(Cyclopropylmethyl)-2′-(methylsulfanyl)-N-pyridin-4-yl-4,5′-bipyrimidin-2-amine] in this work. An IC50 of 0.872 µM was found for `CC(C)(O)CNc1ncc(-c2ccnc(N[C@H]3CC[C@H](NS(C)(=O)=O)CC3)n2)c(CC2CC2)n1` [Example 16g, N-((1r,4r)-4-(4′-(cyclopropylmethyl)-2′-(2-hydroxy-2-methylpropylamino)-4,5′-bipyrimidin-2-ylamino)cyclohexyl)methanesulfonamide] in this work. An IC50 of 0.374 µM was found for `CNc1ncc(-c2ccnc(N[C@H]3CC[C@H](OC)CC3)n2)c(CC2CC2)n1` [Example 14o, 4′-(cyclopropylmethyl)-N^2-((1r,4r)-4-methoxycyclohexyl)-N^2′-methyl-4,5′-bipyrimidine-2,2′-diamine] in this work. An IC50 of 0.037 µM was found for `CNc1ncc(-c2ccnc(Nc3ccncc3)n2)c(CC2CC2)n1` [Example 14c, 4′-(cyclopropylmethyl)-N^2′-methyl-N^2-(pyridin-4-yl)-4,5′-bipyrimidine-2,2′-diamine] in this work. An IC50 of 1.29 µM was found for `Nc1ncc(-c2ccnc(NCc3cccnc3)n2)c(CC2CC2)n1` [Example 15q] in this work. An IC50 of 0.862 µM was found for `CNc1ncc(-c2ccnc(Nc3ccc(OC)c(OC)c3)n2)c(CC2CC2)n1` [Example 14q, 4′-(cyclopropylmethyl)-N^2-(3,4-dimethoxyphenyl)-N^2′-methyl-4,5′-bipyrimidine-2,2′-diamine] in this work. An IC50 of 0.036 µM was found for `Cc1cc2cc(Nc3nccc(-c4cnc(N)nc4CC4CC4)n3)ccc2[nH]1` [Example 15w, 4′-(cyclopropylmethyl)-N^2-(2-methyl-1H-indol-5-yl)-4,5′-bipyrimidine-2,2′-diamine] in this work.

From US8901147B2, “Bi-heteroaryl compounds as Vps34 inhibitors” (Novartis AG, priority 2010, dated 2014)
